# In ChEMBL document CHEMBL1201862, “PubChem BioAssay data set” (2004):
# The source made the active and inactive calls.
# Assays:
# [1] = biological target: Genome polyprotein (dengue virus type 2, UniProt P29990); assay: flavivirus cap methylation enzyme inhibition – biochemical, confirmation dose response, primary screen (AID 588689); assay type: functional
# [2] = biological target: Cytochrome P450 2C9 (Homo sapiens, UniProt P11712)
# [3] = biological target: Cytochrome P450 2C19 (Homo sapiens, UniProt P33261); assay: Cytochrome panel assay with activity outcomes. Panel member name: p450-cyp2c19 Compounds with AC50 equal or less than 10 uM are considered active; assay type: functional
# [4] = biological target: T1, Cytochrome P450 1A2 (Homo sapiens, UniProt P05177);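 also: PubChem cytochrome P450 panel assay, CYP1A2 panel member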
# T1 sequence (P05177 whole entry): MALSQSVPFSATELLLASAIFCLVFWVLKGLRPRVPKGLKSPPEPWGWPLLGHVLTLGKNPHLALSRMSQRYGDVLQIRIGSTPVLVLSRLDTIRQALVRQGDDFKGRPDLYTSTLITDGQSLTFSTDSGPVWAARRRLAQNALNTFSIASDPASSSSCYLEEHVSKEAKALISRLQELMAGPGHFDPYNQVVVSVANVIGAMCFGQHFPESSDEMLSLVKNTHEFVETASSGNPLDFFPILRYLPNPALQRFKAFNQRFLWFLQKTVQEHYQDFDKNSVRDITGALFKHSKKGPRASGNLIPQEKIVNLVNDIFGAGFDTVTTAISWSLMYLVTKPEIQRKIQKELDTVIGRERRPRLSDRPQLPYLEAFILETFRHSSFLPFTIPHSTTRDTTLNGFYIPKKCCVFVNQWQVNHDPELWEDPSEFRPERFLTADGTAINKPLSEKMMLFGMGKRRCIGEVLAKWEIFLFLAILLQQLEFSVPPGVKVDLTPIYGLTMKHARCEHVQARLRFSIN
# [5] = biological target: Cytochrome P450 3A4 (Homo sapiens, UniProt P08684);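 also: CYP3A4 tested as one member of a cytochrome P450 panel screen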
# [6] = system: Streptococcus sp. 'group A'; assay: Streptococcus pyogenes SK(-)GAS viability under kanamycin – luminescence, BacTiterGlo, confirmation, counter-screen for streptokinase expression inhibitor project, dose response (AID 1900); assay type: functional, organism-based
# [7] = biological target: T2, Streptokinase A (Streptococcus pyogenes serotype M1, UniProt P10520); assay: viability-normalized secreted streptokinase activity reduction – plasminogen activation absorbance, OD405, dose response (AID 1914); assay type: functional, Streptococcus pyogenes M1 GAS;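 also: secreted streptokinase activity via plasminogen activation per viability signal from cell pellet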
# T2 sequence (P10520 whole entry): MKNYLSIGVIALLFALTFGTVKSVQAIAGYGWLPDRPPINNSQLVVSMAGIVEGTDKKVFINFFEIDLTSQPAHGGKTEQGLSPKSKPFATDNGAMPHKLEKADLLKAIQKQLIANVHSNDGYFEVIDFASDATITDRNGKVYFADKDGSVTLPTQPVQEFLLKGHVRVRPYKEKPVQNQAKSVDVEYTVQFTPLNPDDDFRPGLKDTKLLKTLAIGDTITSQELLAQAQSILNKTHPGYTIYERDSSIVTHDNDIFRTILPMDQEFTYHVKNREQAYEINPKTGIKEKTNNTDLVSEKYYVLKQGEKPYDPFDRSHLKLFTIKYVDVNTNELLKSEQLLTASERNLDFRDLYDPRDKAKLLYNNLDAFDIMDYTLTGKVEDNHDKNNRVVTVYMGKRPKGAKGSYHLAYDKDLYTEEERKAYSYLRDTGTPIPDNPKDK
# [8] = Trypanosoma cruzi growth suppression in host cells – NIH3T3 host cells, beta-gal luminescence, confirmation (AID 2044); assay type: functional, cell-based;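 also: intracellular parasites grown in NIH/3T3 mouse fibroblasts as host cells; luminescent beta-galactosidase reporter signal from transgenic T. cruzi replicating inside host cells; inhibitors lower the luminescence signal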
# [9] = NIH3T3 cell viability loss – ATP luminescence, mouse fibroblasts, counter-screen, dose response (AID 2010); assay type: functional, cell-based;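 also: cells exposed to compound for about 90 hours before reading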
# [10] = system: Streptococcus; assay: GAS UMAA2166 growth inhibition – luminescence, BacTiterGlo, counter-screen for streptokinase expression inhibitor project, dose response (AID 1915); assay type: functional, organism-based;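 also: potency for reduction of bacterial viability or growth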
# [11] = reduction of Shn3 3'UTR-driven luciferase in osteoblasts – cell-based, Clone20 osteoblasts, firefly luciferase, cherry-picked, dose response (AID 624132); assay type: functional;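 also: firefly luciferase luminescence from reporter carrying the Shn3 3'UTR in osteoblasts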
# [12] = loss of viability in HepG2 cells – cell-based, CellTiter-Glo, cherry-picked, cytotoxicity control for Shn3 inhibitor project, dose response (AID 624134); assay type: functional
# [13] = non-specific 3'UTR reporter inhibition in Clone20-Shn3RL – cell-based, Renilla luciferase, cherry-picked, counter-screen for Shn3 inhibitor project, dose response (AID 624133); assay type: functional
# [14] = viability of uninfected HEp-2 cells – cell-based, HTS, cytotoxicity control for RSV inhibitor project, dose response (AID 2410); assay type: functional; details: human respiratory syncytial virus
# [15] = biological target: T3, Protein skinhead-1 (Caenorhabditis elegans, UniProt P34707); assay type: functional
# T3 sequence (P34707 whole entry): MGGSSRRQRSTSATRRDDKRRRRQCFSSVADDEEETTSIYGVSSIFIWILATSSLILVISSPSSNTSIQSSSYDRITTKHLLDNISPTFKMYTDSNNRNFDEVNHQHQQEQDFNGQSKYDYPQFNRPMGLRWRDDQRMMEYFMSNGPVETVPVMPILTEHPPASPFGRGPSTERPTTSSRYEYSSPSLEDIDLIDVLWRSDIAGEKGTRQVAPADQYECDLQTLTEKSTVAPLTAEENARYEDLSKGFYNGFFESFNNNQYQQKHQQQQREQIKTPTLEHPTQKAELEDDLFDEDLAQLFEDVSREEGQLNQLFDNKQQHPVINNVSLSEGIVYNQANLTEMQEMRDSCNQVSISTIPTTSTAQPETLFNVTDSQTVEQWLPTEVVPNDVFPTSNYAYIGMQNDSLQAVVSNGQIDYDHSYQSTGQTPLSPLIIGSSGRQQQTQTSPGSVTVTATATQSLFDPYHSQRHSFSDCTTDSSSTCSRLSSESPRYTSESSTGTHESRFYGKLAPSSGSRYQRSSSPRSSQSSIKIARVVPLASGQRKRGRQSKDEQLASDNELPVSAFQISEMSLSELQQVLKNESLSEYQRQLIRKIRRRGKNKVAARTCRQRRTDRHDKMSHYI
# [16] = Luminescence Cell-Based Dose Response HTS to Identify Inhibitors of 5'UTR Stem-Loop Driven Prion Protein mRNA Translation in H4 Neuroglioblastoma Cells. [Related pubchem assays: 1827 (Project Summary), 1813 (Primary HTS)]; assay type: functional
# [17] = alpha-synuclein stem-loop luciferase translation blockers – H4 neuroglioma cells, luminescence, confirmation (AID 1988); assay type: functional, cell-based
# [18] = biological target: Luciferin 4-monooxygenase (Photinus pyralis, UniProt P08659); assay: inhibition of purified Photinus pyralis luciferase – biochemical, luminescence, dose response (AID 1891)
# [19] = Luminescence Cell-Based Dose Confirmation HTS to Identify Inhibitors of Platelet Dense Granule Release. [Related pubchem assays: 1663 (Primary HTS), 1678 (Summary of Project)]; assay type: functional
# [20] = biological target: FAD-linked sulfhydryl oxidase ALR (Homo sapiens, UniProt P55789); assay: ALR-catalysed DTT oxidation blockers – biochemical, H2O2 detection, luminescence, cherry-pick, dose response (AID 493248)
# Sequence of FAD-linked sulfhydryl oxidase ALR (P55789 whole entry): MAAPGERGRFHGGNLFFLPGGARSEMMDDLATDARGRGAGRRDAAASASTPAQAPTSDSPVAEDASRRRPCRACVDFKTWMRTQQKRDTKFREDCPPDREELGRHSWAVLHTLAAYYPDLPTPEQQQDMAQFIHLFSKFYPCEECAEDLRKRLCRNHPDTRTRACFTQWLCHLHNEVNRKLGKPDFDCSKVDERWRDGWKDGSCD
# Sequence of Cytochrome P450 3A4 (P08684 whole entry): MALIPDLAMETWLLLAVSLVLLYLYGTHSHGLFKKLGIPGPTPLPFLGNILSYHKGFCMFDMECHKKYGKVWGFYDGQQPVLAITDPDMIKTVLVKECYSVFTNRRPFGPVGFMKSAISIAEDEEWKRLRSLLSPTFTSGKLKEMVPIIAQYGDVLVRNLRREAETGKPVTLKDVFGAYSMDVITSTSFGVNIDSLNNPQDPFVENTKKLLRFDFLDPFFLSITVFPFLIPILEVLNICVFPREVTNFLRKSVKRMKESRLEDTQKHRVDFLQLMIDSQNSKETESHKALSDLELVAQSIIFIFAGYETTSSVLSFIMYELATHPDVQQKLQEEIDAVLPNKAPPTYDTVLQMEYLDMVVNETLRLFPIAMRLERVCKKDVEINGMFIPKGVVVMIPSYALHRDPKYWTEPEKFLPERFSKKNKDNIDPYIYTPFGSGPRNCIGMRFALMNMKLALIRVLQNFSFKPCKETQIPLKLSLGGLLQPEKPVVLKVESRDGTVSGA
# Sequence of Cytochrome P450 2C9 (P11712 whole entry): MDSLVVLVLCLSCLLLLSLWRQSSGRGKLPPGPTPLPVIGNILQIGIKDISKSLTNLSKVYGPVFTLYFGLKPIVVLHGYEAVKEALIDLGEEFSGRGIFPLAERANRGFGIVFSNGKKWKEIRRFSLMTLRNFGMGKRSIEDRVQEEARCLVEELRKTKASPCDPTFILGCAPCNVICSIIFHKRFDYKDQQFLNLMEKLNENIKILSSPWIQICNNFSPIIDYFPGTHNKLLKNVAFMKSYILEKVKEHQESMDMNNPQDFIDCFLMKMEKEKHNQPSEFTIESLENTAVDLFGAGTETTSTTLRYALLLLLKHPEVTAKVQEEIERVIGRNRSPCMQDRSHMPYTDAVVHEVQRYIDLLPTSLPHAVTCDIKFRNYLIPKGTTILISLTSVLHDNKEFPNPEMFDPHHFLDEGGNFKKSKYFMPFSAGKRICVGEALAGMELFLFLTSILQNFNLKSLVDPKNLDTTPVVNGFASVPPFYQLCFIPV
# Sequence of Genome polyprotein (P29990 2492-3391 limits assumed): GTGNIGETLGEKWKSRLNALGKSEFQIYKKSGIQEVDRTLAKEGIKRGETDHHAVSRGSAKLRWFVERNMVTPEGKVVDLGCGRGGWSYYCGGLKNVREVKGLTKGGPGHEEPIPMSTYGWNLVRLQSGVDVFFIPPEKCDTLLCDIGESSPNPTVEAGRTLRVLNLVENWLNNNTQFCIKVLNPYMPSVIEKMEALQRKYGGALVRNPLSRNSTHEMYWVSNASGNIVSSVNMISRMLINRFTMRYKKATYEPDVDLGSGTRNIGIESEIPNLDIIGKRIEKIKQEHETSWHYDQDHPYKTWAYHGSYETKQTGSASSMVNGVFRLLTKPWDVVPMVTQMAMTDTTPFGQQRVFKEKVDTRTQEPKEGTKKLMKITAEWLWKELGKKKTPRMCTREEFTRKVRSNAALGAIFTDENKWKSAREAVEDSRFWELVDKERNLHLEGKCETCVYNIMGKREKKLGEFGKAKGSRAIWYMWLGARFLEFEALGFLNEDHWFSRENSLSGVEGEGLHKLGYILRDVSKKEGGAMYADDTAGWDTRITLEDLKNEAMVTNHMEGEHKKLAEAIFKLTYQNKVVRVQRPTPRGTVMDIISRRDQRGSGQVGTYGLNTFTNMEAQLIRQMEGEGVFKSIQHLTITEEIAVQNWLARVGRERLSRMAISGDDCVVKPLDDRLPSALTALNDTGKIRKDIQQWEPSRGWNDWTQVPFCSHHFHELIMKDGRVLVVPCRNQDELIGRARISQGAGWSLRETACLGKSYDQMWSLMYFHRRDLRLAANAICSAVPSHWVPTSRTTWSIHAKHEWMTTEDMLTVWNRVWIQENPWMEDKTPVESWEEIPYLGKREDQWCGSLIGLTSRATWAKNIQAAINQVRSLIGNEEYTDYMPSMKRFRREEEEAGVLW
# Sequence of Luciferin 4-monooxygenase (P08659 whole entry): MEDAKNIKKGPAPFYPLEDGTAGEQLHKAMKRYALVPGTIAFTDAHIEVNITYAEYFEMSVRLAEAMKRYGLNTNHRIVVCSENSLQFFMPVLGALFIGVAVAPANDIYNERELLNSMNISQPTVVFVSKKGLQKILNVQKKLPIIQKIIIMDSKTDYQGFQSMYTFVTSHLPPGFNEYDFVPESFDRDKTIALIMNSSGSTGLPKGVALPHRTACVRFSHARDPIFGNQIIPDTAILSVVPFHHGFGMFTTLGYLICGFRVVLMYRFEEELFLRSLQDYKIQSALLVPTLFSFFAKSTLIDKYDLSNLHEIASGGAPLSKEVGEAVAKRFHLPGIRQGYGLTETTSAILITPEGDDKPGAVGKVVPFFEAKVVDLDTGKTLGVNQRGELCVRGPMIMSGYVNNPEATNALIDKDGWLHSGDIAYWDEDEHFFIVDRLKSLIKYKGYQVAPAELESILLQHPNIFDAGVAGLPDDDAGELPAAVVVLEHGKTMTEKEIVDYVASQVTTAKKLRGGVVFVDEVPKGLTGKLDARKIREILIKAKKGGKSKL
# Sequence of Cytochrome P450 2C19 (P33261 whole entry): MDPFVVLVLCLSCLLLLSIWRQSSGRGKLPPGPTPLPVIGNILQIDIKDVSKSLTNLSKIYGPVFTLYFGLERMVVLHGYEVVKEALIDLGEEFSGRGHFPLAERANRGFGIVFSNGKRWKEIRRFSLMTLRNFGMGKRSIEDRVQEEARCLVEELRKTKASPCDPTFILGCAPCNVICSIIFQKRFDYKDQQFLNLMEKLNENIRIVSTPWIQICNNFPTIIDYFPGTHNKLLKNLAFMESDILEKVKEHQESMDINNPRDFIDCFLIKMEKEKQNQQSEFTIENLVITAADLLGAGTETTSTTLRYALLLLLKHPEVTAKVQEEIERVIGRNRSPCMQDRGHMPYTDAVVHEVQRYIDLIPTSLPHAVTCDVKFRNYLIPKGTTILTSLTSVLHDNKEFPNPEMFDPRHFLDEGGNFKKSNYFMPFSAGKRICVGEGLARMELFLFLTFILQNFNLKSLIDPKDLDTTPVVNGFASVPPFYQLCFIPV
smiles,measurement,setting,value
C#CCOc1ccc(/C=C2/C(=O)ON=C2C)cc1Br,IC50,[1],80.7 µM (active)
CCC[C@H]1C[C@H](C(=O)N[C@H]([C@@H]2O[C@H](SC)[C@@H](O)[C@H](O)[C@@H]2O)[C@H](C)O)N(C)C1,AC50,[2],inconclusive
O=Nc1c(O)ccc2cc(S(=O)(=O)O)ccc12,IC50,[1],45.7 µM (active)
O=C1c2cccc([N+](=O)[O-])c2C(=O)N1c1ncn[nH]1,AC50,[3],inconclusive
same,AC50,[4],3.16 µM (inconclusive)
same,AC50,[5],3.98 µM (inconclusive)
same,AC50,[2],inconclusive
COc1ccc(/C=C(/C#N)C(=O)NC2CCCCC2)cc1Br,AC50,[5],25.1 µM (inconclusive)
same,AC50,[2],inconclusive
CCC(=O)NC(c1ccc(OC)c(OC)c1)c1cc(Cl)c2cccnc2c1O (stereo not drawn),EC50,[6],4.86 µM (active)
same,EC50,[7],> 150 µM (not active)
same,EC50,[8],0.96 µM (active)
same,EC50,[9],4.73 µM (active)
same,EC50,[10],> 150 µM (not active)
same,AC50,[11],< 0.26 µM (active)
same,AC50,[12],5.6 µM (active)
same,AC50,[13],2.11 µM (active)
Cc1ccc(-c2nc3ccc(C(=O)O)cc3nc2-c2ccc(C)cc2)cc1,CC50,[14],19.4 µM (active)
same,IC50,[1],55.3 µM (active)
COc1ccn(C)c(=O)c1C#N [RICININE],AC50,[2],inconclusive
O=C(O)Cc1nn(Cc2ccc(Br)cc2F)c(=O)c2ccccc12 [PONALRESTAT],AC50,[4],31.6 µM (inconclusive)
same,AC50,[2],inconclusive
O=[N+]([O-])c1c(O)nc(O)nc1/C=C/c1ccc(Cl)cc1Cl,IC50,[1],49.1 µM (active)
CCCCOc1ccc(Br)cc1CSC(=N)N,AC50,[11],1.37 µM (active)
same,AC50,[12],23.6 µM (active)
same,AC50,[13],2.58 µM (active)
CN(C)c1ncc2nc(-c3cc(F)cc(F)c3)c(=O)n(CCC#N)c2n1,AC50,[5],39.8 µM (inconclusive)
same,AC50,[2],inconclusive
CC(C)c1ccc(NC(=O)Nc2nc(C(N)C3CCCCC3)cs2)cc1 (stereo not drawn),AC50,[11],7.29 µM (active)
same,AC50,[12],13.8 µM (active)
same,AC50,[13],4.41 µM (active)
CCCCCn1c(=N)n(CC(O)COc2ccccc2OC)c2ccccc21 (stereo not drawn),AC50,[11],2.12 µM (active)
same,AC50,[12],24.2 µM (active)
same,AC50,[13],23.4 µM (active)
O=C1NC(=O)N(c2ccccc2)C(=O)/C1=C\c1ccccc1[N+](=O)[O-],IC50,[1],38.5 µM (active)
C=CCc1cc(C=C2C(=O)NC(=O)NC2=O)cc(OC)c1OCc1ccc(C(=O)O)cc1,IC50,[1],29.1 µM (active)
COc1ccc(Oc2ncc3nc(-c4cn(C)c5ccccc45)c(=O)n(CCC#N)c3n2)cc1,AC50,[4],2 µM (inconclusive)
same,AC50,[2],inconclusive
O=C(NC1CS(=O)(=O)CC1NCc1ccccc1)c1ccccc1 (stereo not drawn),IC50,[15],> 100 µM (inactive)
O=C(Nc1ccccc1N1CCOCC1)c1ccccc1[N+](=O)[O-],AC50,[4],12.6 µM (inconclusive)
same,AC50,[2],inconclusive
CN(C)C(=O)c1cccc(-c2cnc3c(NC=O)cc(-c4ccc(N(C)C)cc4)cn23)c1,IC50,[15],> 100 µM (inactive)
Clc1ccc(-c2nnc(-c3ccccc3)c(N3CCSCC3)n2)cc1,IC50,[15],> 100 µM (inactive)
Cc1c(-c2nc(-c3cccnc3)no2)cccc1[N+](=O)[O-],IC50,[15],> 100 µM (inactive)
O=C(/C=C/Nc1ccc(Br)cc1F)c1ccco1,EC50,[16],3.64 µM (active)
same,EC50,[17],4.41 µM (active)
same,EC50,[18],0.482 µM (active)
same,EC50,[19],8.72 µM (active)
same,IC50,[15],15.4 µM (active)
O=C(O)c1ccc(Cl)c(S(=O)(=O)Nc2ccc(S(=O)(=O)Nc3cccc(Cl)c3)cc2)c1,IC50,[1],65.7 µM (active)
Cc1ccc(C(C)C)cc1NC(=O)Nc1ccc([N+](=O)[O-])cc1,EC50,[6],6.64 µM (active)
same,EC50,[7],10.8 µM (active)
same,EC50,[10],17.5 µM (active)
same,AC50,[11],7.19 µM (active)
same,AC50,[12],22.4 µM (active)
same,AC50,[13],6.53 µM (active)
CCN(C(=O)CN1C(=O)S/C(=C\c2cccc(Cl)c2)C1=O)C1CCS(=O)(=O)C1 (stereo not drawn),IC50,[15],> 100 µM (inactive)
C=CCN1C(=O)NC(=O)/C(=C\c2ccc(-c3ccccc3[N+](=O)[O-])o2)C1=O,AC50,[20],0.507 µM (active)
same,IC50,[1],25.2 µM (active)
O=C(O)CN1C(=O)C=CC1=O,IC50,[1],> 100 µM (active)
CCCN(CCC)C[C@@H]1CCCCN1CCNC(=O)N1c2ccccc2C(=O)Nc2cccnc21,AC50,[4],25.1 µM (inconclusive)
same,AC50,[5],15.8 µM (inconclusive)
same,AC50,[2],inconclusive
Nc1nc(S)nc2c1C1(CCCCC1)Cc1ccccc1-2,AC50,[12],> 70 µM (inactive)
same,AC50,[13],25 µM (active)
COc1cc2ccccc2cc1C(=O)Nc1ccncc1,IC50,[15],52.3 µM (inactive)
O=C(NC1CCCC1)C1CC(c2ccc(F)cc2)=NO1 (stereo not drawn),AC50,[5],25.1 µM (inconclusive)
same,AC50,[2],inconclusive
Cc1cc2nnc(SCCCCN3C(=O)c4ccccc4C3=O)n2c2ccccc12,AC50,[2],inconclusive
Clc1ncc(CSc2ccccc2)s1,IC50,[15],84.8 µM (inactive)
CC(C)NS(=O)(=O)c1ccc(CCC(=O)Nc2cc(Cl)ccc2Oc2ccccc2)cc1,AC50,[11],7.65 µM (active)
same,AC50,[12],57.7 µM (active)
same,AC50,[13],22.5 µM (active)
